Results published in the NIST ThermoML archive (doi:10.1021/acs.jced.6b00536).
Where “and” joins values, the source holds several entries; their conditions need not be identical. Equal values may be shown once. ± gives the expanded uncertainty stated by the source.

Conditions: Gas, Frequency=0.05 MHz, Single path-length method

FC(F)(F)C(F)(F)C(F)(F)F [octafluoropropane]
Conditions	speed of sound
251.1 K, 62.4 kPa	106.76 ± 0.1 m/s
251.1 K, 71.8 kPa	106.39 ± 0.1 m/s
251.1 K, 80.5 kPa	106.08 ± 0.1 m/s
251.1 K, 89.7 kPa	105.72 ± 0.1 m/s
251.1 K, 102 kPa	105.24 ± 0.1 m/s
251.1 K, 118.2 kPa	104.61 ± 0.1 m/s
251.1 K, 143.1 kPa	103.57 ± 0.1 m/s
251.1 K, 167.2 kPa	102.56 ± 0.1 m/s
256.3 K, 63.7 kPa	107.91 ± 0.1 m/s
256.3 K, 73.3 kPa	107.57 ± 0.1 m/s
256.3 K, 82.2 kPa	107.26 ± 0.1 m/s
256.3 K, 91.7 kPa	106.91 ± 0.1 m/s
256.3 K, 104.3 kPa	106.47 ± 0.1 m/s
256.3 K, 120.9 kPa	105.85 ± 0.1 m/s
256.3 K, 146.4 kPa	104.86 ± 0.1 m/s
256.3 K, 171.2 kPa	103.89 ± 0.1 m/s
256.3 K, 198.4 kPa	102.79 ± 0.1 m/s
256.3 K, 221.3 kPa	101.83 ± 0.1 m/s
261.6 K, 65.1 kPa	109.07 ± 0.1 m/s
261.6 K, 74.9 kPa	108.75 ± 0.1 m/s
261.6 K, 84 kPa	108.44 ± 0.1 m/s
261.6 K, 93.7 kPa	108.11 ± 0.1 m/s
261.6 K, 106.6 kPa	107.67 ± 0.1 m/s
261.6 K, 123.6 kPa	107.08 ± 0.1 m/s
261.6 K, 149.8 kPa	106.13 ± 0.1 m/s
261.6 K, 175.2 kPa	105.21 ± 0.1 m/s
261.6 K, 203.2 kPa	104.16 ± 0.1 m/s
261.6 K, 226.7 kPa	103.22 ± 0.1 m/s
261.6 K, 233.4 kPa	102.97 ± 0.1 m/s
261.6 K, 253.9 kPa	102.14 ± 0.1 m/s
266.8 K, 66.4 kPa	110.2 ± 0.1 m/s
266.8 K, 76.4 kPa	109.87 ± 0.1 m/s
266.8 K, 85.7 kPa	109.58 ± 0.1 m/s
266.8 K, 95.7 kPa	109.25 ± 0.1 m/s
266.8 K, 108.8 kPa	108.83 ± 0.1 m/s
266.8 K, 126.3 kPa	108.28 ± 0.1 m/s
266.8 K, 153 kPa	107.37 ± 0.1 m/s
266.8 K, 179.2 kPa	106.48 ± 0.1 m/s
266.8 K, 207.8 kPa	105.46 ± 0.1 m/s
266.8 K, 232.2 kPa	104.58 ± 0.1 m/s
266.8 K, 238.9 kPa	104.32 ± 0.1 m/s
266.8 K, 260 kPa	103.52 ± 0.1 m/s
272.1 K, 67.8 kPa	111.33 ± 0.09 m/s
272.1 K, 78 kPa	111.03 ± 0.1 m/s
272.1 K, 87.5 kPa	110.74 ± 0.1 m/s
272.1 K, 97.7 kPa	110.44 ± 0.1 m/s
272.1 K, 111.1 kPa	110.02 ± 0.1 m/s
272.1 K, 128.9 kPa	109.46 ± 0.1 m/s and 109.47 ± 0.1 m/s
272.1 K, 156.4 kPa	108.62 ± 0.1 m/s and 108.61 ± 0.1 m/s
272.1 K, 183.1 kPa	107.74 ± 0.1 m/s
272.1 K, 212.6 kPa	106.77 ± 0.1 m/s
272.1 K, 237.5 kPa	105.93 ± 0.1 m/s
272.1 K, 244.5 kPa	105.69 ± 0.1 m/s
272.1 K, 266.3 kPa	104.92 ± 0.1 m/s
277.4 K, 69.1 kPa	112.44 ± 0.09 m/s
277.4 K, 79.6 kPa	112.15 ± 0.09 m/s
277.4 K, 89.3 kPa	111.87 ± 0.09 m/s
277.4 K, 99.7 kPa	111.58 ± 0.1 m/s
277.4 K, 113.4 kPa	111.18 ± 0.1 m/s
277.4 K, 131.6 kPa	110.66 ± 0.1 m/s
277.4 K, 159.7 kPa	109.81 ± 0.1 m/s
277.4 K, 187.1 kPa	108.99 ± 0.1 m/s
277.4 K, 217.3 kPa	108.05 ± 0.1 m/s
277.4 K, 242.9 kPa	107.24 ± 0.1 m/s
277.4 K, 250.1 kPa	107.02 ± 0.1 m/s
277.4 K, 272.5 kPa	106.29 ± 0.1 m/s
282.7 K, 70.4 kPa	113.54 ± 0.09 m/s
282.7 K, 81.2 kPa	113.28 ± 0.09 m/s
282.7 K, 91 kPa	113 ± 1 m/s
282.7 K, 101.6 kPa	112.71 ± 0.09 m/s
282.7 K, 115.6 kPa	112.32 ± 0.09 m/s
282.7 K, 134.3 kPa	111.82 ± 0.1 m/s
282.7 K, 163 kPa	111.01 ± 0.1 m/s
282.7 K, 191.1 kPa	110.22 ± 0.1 m/s
282.7 K, 222 kPa	109.31 ± 0.1 m/s
282.7 K, 248.3 kPa	108.54 ± 0.1 m/s
282.7 K, 255.6 kPa	108.32 ± 0.1 m/s
282.7 K, 278.6 kPa	107.62 ± 0.1 m/s
287.9 K, 71.8 kPa	114.63 ± 0.09 m/s
287.9 K, 82.7 kPa	114.36 ± 0.09 m/s
287.9 K, 92.8 kPa	114.11 ± 0.09 m/s
287.9 K, 103.6 kPa	113.84 ± 0.09 m/s
287.9 K, 117.9 kPa	113.46 ± 0.09 m/s
287.9 K, 136.9 kPa	112.97 ± 0.09 m/s
287.9 K, 166.3 kPa	112.19 ± 0.1 m/s
287.9 K, 195 kPa	111.42 ± 0.1 m/s
287.9 K, 226.7 kPa	110.56 ± 0.1 m/s
287.9 K, 253.6 kPa	109.81 ± 0.1 m/s
287.9 K, 261.1 kPa	109.59 ± 0.1 m/s
287.9 K, 284.7 kPa	108.91 ± 0.1 m/s
293.2 K, 73.1 kPa	115.72 ± 0.09 m/s
293.2 K, 84.2 kPa	115.45 ± 0.09 m/s
293.2 K, 84.3 kPa	115.46 ± 0.09 m/s
293.2 K, 94.5 kPa	115.2 ± 0.1 m/s
293.2 K, 94.6 kPa	115.21 ± 0.09 m/s
293.2 K, 105.6 kPa	114.93 ± 0.09 m/s and 114.94 ± 0.09 m/s
293.2 K, 120.1 kPa	114.57 ± 0.09 m/s
293.2 K, 139.6 kPa	114.1 ± 0.1 m/s
293.2 K, 169.6 kPa	113.36 ± 0.09 m/s
293.2 K, 198.9 kPa	112.61 ± 0.1 m/s
293.2 K, 231.3 kPa	111.79 ± 0.1 m/s
293.2 K, 231.4 kPa	111.79 ± 0.1 m/s
293.2 K, 258.8 kPa	111.04 ± 0.1 m/s
293.2 K, 258.9 kPa	111.05 ± 0.1 m/s
293.2 K, 266.6 kPa	110.85 ± 0.1 m/s
293.2 K, 266.7 kPa	110.86 ± 0.1 m/s
293.2 K, 290.7 kPa	110.18 ± 0.1 m/s
293.2 K, 290.8 kPa	110.19 ± 0.1 m/s
298.4 K, 74.5 kPa	116.78 ± 0.09 m/s
298.4 K, 85.8 kPa	116.53 ± 0.09 m/s
298.4 K, 96.3 kPa	116.29 ± 0.09 m/s
298.4 K, 107.6 kPa	116.05 ± 0.09 m/s
298.4 K, 122.4 kPa	115.7 ± 0.1 m/s
298.4 K, 142.2 kPa	115.21 ± 0.09 m/s
298.4 K, 172.8 kPa	114.5 ± 0.1 m/s
298.4 K, 202.9 kPa	113.8 ± 0.1 m/s
298.4 K, 235.9 kPa	112.97 ± 0.1 m/s
298.4 K, 264.2 kPa	112.28 ± 0.1 m/s
298.4 K, 272.1 kPa	112.08 ± 0.1 m/s
298.4 K, 296.8 kPa	111.46 ± 0.1 m/s
303.7 K, 75.8 kPa	117.86 ± 0.09 m/s
303.7 K, 87.4 kPa	117.61 ± 0.09 m/s
303.7 K, 98.1 kPa	117.39 ± 0.09 m/s
303.7 K, 109.5 kPa	117.14 ± 0.09 m/s
303.7 K, 124.7 kPa	116.78 ± 0.09 m/s
303.7 K, 144.9 kPa	116.33 ± 0.09 m/s
303.7 K, 176.2 kPa	115.66 ± 0.09 m/s
303.7 K, 206.7 kPa	114.96 ± 0.09 m/s
303.7 K, 240.6 kPa	114.17 ± 0.1 m/s
303.7 K, 269.4 kPa	113.49 ± 0.09 m/s
303.7 K, 277.6 kPa	113.32 ± 0.09 m/s
308.9 K, 77.1 kPa	118.9 ± 0.1 m/s
308.9 K, 88.9 kPa	118.66 ± 0.09 m/s
308.9 K, 99.8 kPa	118.44 ± 0.09 m/s
308.9 K, 111.5 kPa	118.19 ± 0.09 m/s
308.9 K, 127 kPa	117.87 ± 0.09 m/s
308.9 K, 147.5 kPa	117.44 ± 0.09 m/s
308.9 K, 179.4 kPa	116.75 ± 0.09 m/s
308.9 K, 210.6 kPa	116.08 ± 0.09 m/s
308.9 K, 245.2 kPa	115.33 ± 0.09 m/s
308.9 K, 274.7 kPa	114.68 ± 0.1 m/s
308.9 K, 283 kPa	114.5 ± 0.1 m/s
314.1 K, 78.5 kPa	119.93 ± 0.09 m/s
314.1 K, 90.4 kPa	119.69 ± 0.09 m/s
314.1 K, 101.6 kPa	119.47 ± 0.09 m/s
314.1 K, 113.4 kPa	119.24 ± 0.09 m/s
314.1 K, 129.2 kPa	118.93 ± 0.09 m/s
314.1 K, 150.2 kPa	118.52 ± 0.09 m/s
314.1 K, 182.7 kPa	117.85 ± 0.09 m/s
314.1 K, 214.5 kPa	117.21 ± 0.09 m/s
314.1 K, 249.8 kPa	116.47 ± 0.09 m/s
314.1 K, 279.9 kPa	115.84 ± 0.09 m/s
314.1 K, 288.4 kPa	115.67 ± 0.09 m/s
319.4 K, 79.8 kPa	120.96 ± 0.09 m/s
319.4 K, 92 kPa	120.74 ± 0.09 m/s
319.4 K, 103.3 kPa	120.52 ± 0.09 m/s
319.4 K, 115.4 kPa	120.29 ± 0.09 m/s
319.4 K, 131.4 kPa	119.98 ± 0.09 m/s
319.4 K, 152.8 kPa	119.58 ± 0.09 m/s
319.4 K, 185.9 kPa	118.95 ± 0.09 m/s
319.4 K, 218.4 kPa	118.33 ± 0.09 m/s
319.4 K, 254.4 kPa	117.62 ± 0.09 m/s
319.4 K, 285.1 kPa	117.02 ± 0.09 m/s
319.4 K, 293.8 kPa	116.85 ± 0.09 m/s
324.6 K, 81.2 kPa	121.98 ± 0.09 m/s
324.6 K, 93.5 kPa	121.75 ± 0.09 m/s
324.6 K, 105.1 kPa	121.56 ± 0.09 m/s
324.6 K, 117.4 kPa	121.32 ± 0.09 m/s
324.6 K, 133.7 kPa	121.03 ± 0.09 m/s
324.6 K, 155.4 kPa	120.64 ± 0.09 m/s
324.6 K, 189.2 kPa	120.02 ± 0.09 m/s
324.6 K, 222.3 kPa	119.43 ± 0.09 m/s
324.6 K, 259 kPa	118.74 ± 0.09 m/s
324.6 K, 290.3 kPa	118.16 ± 0.09 m/s
324.6 K, 299.2 kPa	117.99 ± 0.09 m/s
